Experimental data taken from PubChem BioAssay (NCI).
Several values for one entry are separate records, joined by “and”; a condition that tells them apart may be missing. Equal entries are not always repeated.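 A five-concentration, 48-hour dose response in 96-well plates underlies each endpoint, interpolated linearly between surrounding concentrations. GI50 is the concentration that inhibits growth by half. TGI: total growth inhibition.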

Columns and labels:
Assay in all cases: NCI anticancer screen, dose series, 48 h
CAKI-1 renal = system: CAKI-1 renal
HCT-116 colon = system: HCT-116 colon
NCI-H522 lung = system: NCI-H522 lung
OVCAR-3 ovarian = system: OVCAR-3 ovarian
OVCAR-4 ovarian = system: OVCAR-4 ovarian
OVCAR-8 ovarian = system: OVCAR-8 ovarian
SF-268 CNS = system: SF-268 CNS
SF-539 CNS = system: SF-539 CNS
U251 CNS = system: U251 CNS
UACC-257 melanoma = system: UACC-257 melanoma

| Structure (SMILES) | GI50 (CAKI-1 renal) | TGI (CAKI-1 renal) | GI50 (HCT-116 colon) | TGI (HCT-116 colon) | GI50 (NCI-H522 lung) | TGI (NCI-H522 lung) | GI50 (OVCAR-3 ovarian) | TGI (OVCAR-3 ovarian) | GI50 (OVCAR-4 ovarian) | TGI (OVCAR-4 ovarian) | GI50 (OVCAR-8 ovarian) | TGI (OVCAR-8 ovarian) | GI50 (SF-268 CNS) | TGI (SF-268 CNS) | GI50 (SF-539 CNS) | TGI (SF-539 CNS) | GI50 (U251 CNS) | TGI (U251 CNS) | GI50 (UACC-257 melanoma) | TGI (UACC-257 melanoma) |
| --- | --- | --- | --- | --- | --- | --- | --- | --- | --- | --- | --- | --- | --- | --- | --- | --- | --- | --- | --- | --- |
| COc1ccc(/C=C/C(=O)c2cc3c(N)c(C(=O)Nc4ccccc4)sc3nc2C)cc1 | 0.258 µM | > 50 µM | 0.189 µM | 5.1 µM | 0.113 µM | 4.56 µM | 0.146 µM | 0.791 µM | 0.472 µM | > 50 µM | 0.277 µM | > 50 µM | 0.517 µM | > 50 µM | 0.105 µM | 0.286 µM | 0.325 µM | 8.24 µM | 18 µM | > 50 µM |
| CNc1nc(N(C)C)nc(N(C)C)n1 | > 100 µM and 926 µM | > 100 µM and 2620 µM | > 100 µM and 809 µM | > 100 µM and 1930 µM | > 100 µM and 874 µM | > 100 µM and 3370 µM | > 100 µM and 981 µM | > 100 µM and 2300 µM | > 100 µM and 431 µM | > 100 µM and 1260 µM | > 100 µM and 1780 µM | > 100 µM and 2950 µM | > 100 µM and 2680 µM | > 100 µM and 6220 µM | > 100 µM and 1350 µM | > 100 µM and 3580 µM | > 100 µM and 1150 µM | > 100 µM and 2950 µM | > 100 µM and 1640 µM | > 100 µM and 3580 µM |
| C[CH2][Sn]([CH2]C)([O]C(=O)c1cccc(F)c1)[O][Sn]([CH2]C)([CH2]C)[O]C(=O)c1cccc(F)c1 | 11.7 µM | 24.1 µM | 17.8 µM | 32.5 µM | 1.32 µM | 2.65 µM | 78.8 µM | > 100 µM | 22.8 µM | 46.7 µM | 17.5 µM | 32.3 µM | 17.9 µM | 32.9 µM | 17 µM | 30.9 µM | 16.9 µM | 30.6 µM | 16.8 µM | 30.9 µM |
| Clc1ccc(SCCCCCCCCCCSc2ccc(Cl)cc2)cc1 |  | > 100 µM |  | > 100 µM |  | > 100 µM |  | > 70.7 µM |  | > 100 µM |  | > 80.1 µM |  | > 100 µM |  | > 100 µM |  | > 69.8 µM |  | > 76.1 µM |
| Cc1nn(-c2nc3ccccc3[nH]2)c2c1C(c1ccc3c(c1)OCO3)CC(=O)N2 (stereo not given) | 2.55 µM | 7.04 µM | 2.24 µM | 4.73 µM | 2.22 µM | 5.41 µM | 2.38 µM | 5.17 µM | 3.51 µM | > 87.4 µM | 3.51 µM | > 100 µM | 3.38 µM | 11.7 µM | 2.16 µM | 4.82 µM | 2.14 µM | 4.79 µM | 2.41 µM | 6.96 µM |
| Oc1c(N=Nc2ccccc2)c2ccccc2c2ccc3ccccc3c12 |  | > 100 µM |  | > 100 µM |  | > 100 µM |  | > 100 µM |  | > 100 µM |  | > 100 µM |  | > 100 µM |  | 85.2 µM |  | > 100 µM |  | > 100 µM |
| C=CC(=O)Nc1cccc(C)c1Nc1ncc2cc(-c3c(Cl)c(OC)cc(OC)c3Cl)ccc2n1 | 8.39 µM | > 100 µM | 6.36 µM | 24.9 µM | 10.2 µM | 26.9 µM | 2.78 µM | 13.1 µM | 3.47 µM | > 100 µM | 4.83 µM | 47 µM | 3.69 µM | 38.6 µM | 1.38 µM | 10.8 µM | 2.3 µM | 16.5 µM | 3.43 µM | 68.3 µM |
